Experimental data from ChEMBL document CHEMBL1135741, “Synthesis and biological evaluation of analogues of the peptaibol ampullosporin A” (J Med Chem, 2002).
Where a SMILES comes first, the peptide text is derived from it. [ ]: non-standard residue; d: D form. ξ: configuration not given here. Oic(3aξ,7aξ) = O=C(O)[C@@H]1CC2CCCCC2N1; 2Nal = N[C@@H](Cc1ccc2ccccc2c1)C(=O)O; Igl = N[C@H](C(=O)O)C1Cc2ccccc2C1; Tic = O=C(O)[C@@H]1Cc2ccccc2CN1; Leu(ol) = CC(C)C[C@H](N)CO; Aib = CC(C)(N)C(=O)O

Tests used:
[1] = tested on: Remotididymella destructiva; assay: Evaluated for pigment induction capacity based on the Phoma destructiva halo color; No activity; format: functional, organism-based
Mus musculus = species on record: Mus musculus; assay: Evaluated for its ability to modify the core body temperature of mice; No activity; format: functional, organism-based

## CC(=O)N[C@@H](Cc1c[nH]c2ccccc12)C(=O)N[C@@H](C)C(=O)N[C@@H](C)C(=O)N[C@@H](C)C(=O)N[C@@H](CC(C)C)C(=O)N[C@@H](C)C(=O)N[C@@H](CCC(N)=O)C(=O)N[C@@H](C)C(=O)N[C@@H](C)C(=O)N[C@@H](C)C(=O)N[C@@H](CCC(N)=O)C(=O)N[C@@H](CC(C)C)C(=O)N[C@@H](C)C(=O)N[C@@H](CCC(N)=O)C(=O)N[C@H](CO)CC(C)C (Ac-WAAALAQAAAQLAQ[Leu(ol)])
[1]
  NA: No activity
Mus musculus
  NA: No activity

## CC(=O)N[C@@H](Cc1ccc2ccccc2c1)C(=O)N[C@@H](C)C(=O)NC(C)(C)C(=O)NC(C)(C)C(=O)N[C@@H](CC(C)C)C(=O)NC(C)(C)C(=O)N[C@@H](CCC(N)=O)C(=O)NC(C)(C)C(=O)NC(C)(C)C(=O)NC(C)(C)C(=O)N[C@@H](CCC(N)=O)C(=O)N[C@@H](CC(C)C)C(=O)NC(C)(C)C(=O)N[C@@H](CCC(N)=O)C(=O)N[C@H](CO)CC(C)C (Ac-[2Nal]A[Aib][Aib]L[Aib]Q[Aib][Aib][Aib]QL[Aib]Q[Leu(ol)])
Mus musculus
  NA: No activity

## CC(=O)N[C@@H](C)C(=O)NC(C)(C)C(=O)NC(C)(C)C(=O)N[C@@H](CC(C)C)C(=O)NC(C)(C)C(=O)N[C@@H](CCC(N)=O)C(=O)NC(C)(C)C(=O)NC(C)(C)C(=O)NC(C)(C)C(=O)N[C@@H](CCC(N)=O)C(=O)N[C@@H](CC(C)C)C(=O)NC(C)(C)C(=O)N[C@@H](CCC(N)=O)C(=O)N[C@H](CO)CC(C)C (Ac-A[Aib][Aib]L[Aib]Q[Aib][Aib][Aib]QL[Aib]Q[Leu(ol)])
[1]
  NA: No activity
Mus musculus
  NA: No activity

## CC(C)C[C@@H](CO)NC(=O)[C@H](CCC(N)=O)NC(=O)C(C)(C)NC(=O)[C@H](CC(C)C)NC(=O)[C@H](CCC(N)=O)NC(=O)C(C)(C)NC(=O)C(C)(C)NC(=O)C(C)(C)NC(=O)[C@H](CCC(N)=O)NC(=O)C(C)(C)NC(=O)[C@H](CC(C)C)NC(=O)C(C)(C)NC(=O)C(C)(C)NC(=O)[C@H](C)N (H-A[Aib][Aib]L[Aib]Q[Aib][Aib][Aib]QL[Aib]Q[Leu(ol)])
[1]
  NA: No activity
Mus musculus
  NA: No activity

## CC(=O)N[C@@H](Cc1c[nH]c2ccccc12)C(=O)N[C@@H](C)C(=O)NC(C)(C)C(=O)NC(C)(C)C(=O)N[C@@H](CC(C)C)C(=O)N[C@@H](C)C(=O)N[C@@H](CCC(N)=O)C(=O)NC(C)(C)C(=O)NC(C)(C)C(=O)NC(C)(C)C(=O)N[C@@H](CCC(N)=O)C(=O)N[C@@H](CC(C)C)C(=O)NC(C)(C)C(=O)N[C@@H](CCC(N)=O)C(=O)N[C@H](CO)CC(C)C (Ac-WA[Aib][Aib]LAQ[Aib][Aib][Aib]QL[Aib]Q[Leu(ol)])
Mus musculus
  NA: No activity

## CC(C)C[C@@H](CO)NC(=O)[C@H](CCC(N)=O)NC(=O)C(C)(C)NC(=O)[C@H](CC(C)C)NC(=O)[C@H](CCC(N)=O)NC(=O)C(C)(C)NC(=O)C(C)(C)NC(=O)C(C)(C)NC(=O)[C@H](CCC(N)=O)NC(=O)C(C)(C)NC(=O)[C@H](CC(C)C)NC(=O)C(C)(C)NC(=O)C(C)(C)NC(=O)[C@H](C)NC(=O)[C@@H](N)Cc1c[nH]c2ccccc12 (H-WA[Aib][Aib]L[Aib]Q[Aib][Aib][Aib]QL[Aib]Q[Leu(ol)])
Mus musculus
  NA: No activity

## CC(=O)N[C@@H](Cc1c[nH]c2ccccc12)C(=O)N[C@@H](C)C(=O)NC(C)(C)C(=O)NC(C)(C)C(=O)N[C@@H](CC(C)C)C(=O)NC(C)(C)C(=O)N[C@@H](CCC(N)=O)C(=O)NC(C)(C)C(=O)NC(C)(C)C(=O)NC(C)(C)C(=O)N[C@@H](CCC(N)=O)C(=O)N[C@@H](CC(C)C)C(=O)NC(C)(C)C(=O)N[C@@H](CCC(N)=O)C(=O)O (Ac-WA[Aib][Aib]L[Aib]Q[Aib][Aib][Aib]QL[Aib]Q-OH)
[1]
  NA: No activity
Mus musculus
  NA: No activity

## CC(=O)N1Cc2ccccc2C[C@H]1C(=O)N[C@@H](C)C(=O)NC(C)(C)C(=O)NC(C)(C)C(=O)N[C@@H](CC(C)C)C(=O)NC(C)(C)C(=O)N[C@@H](CCC(N)=O)C(=O)NC(C)(C)C(=O)NC(C)(C)C(=O)NC(C)(C)C(=O)N[C@@H](CCC(N)=O)C(=O)N[C@@H](CC(C)C)C(=O)NC(C)(C)C(=O)N[C@@H](CCC(N)=O)C(=O)N[C@H](CO)CC(C)C (Ac-[Tic]A[Aib][Aib]L[Aib]Q[Aib][Aib][Aib]QL[Aib]Q[Leu(ol)])
Mus musculus
  NA: No activity

## CC[C@@H](C)[C@H](NC(=O)[C@H](CC(C)C)NC(=O)[C@@H](NC(=O)[C@@H](NC(=O)[C@H](C)NC(=O)[C@H](Cc1c[nH]c2ccccc12)NC(C)=O)[C@@H](C)CC)[C@H](C)CC)C(=O)N[C@@H](CCC(N)=O)C(=O)N[C@H](C(=O)N[C@H](C(=O)N[C@H](C(=O)N[C@@H](CCC(N)=O)C(=O)N[C@@H](CC(C)C)C(=O)N[C@H](C(=O)N[C@@H](CCC(N)=O)C(=O)N[C@H](CO)CC(C)C)[C@@H](C)CC)[C@H](C)CC)[C@@H](C)CC)[C@H](C)CC
[1]
  NA: No activity
Mus musculus
  NA: No activity

## CC(=O)N[C@H](C(=O)N[C@@H](C)C(=O)NC(C)(C)C(=O)NC(C)(C)C(=O)N[C@@H](CC(C)C)C(=O)NC(C)(C)C(=O)N[C@@H](CCC(N)=O)C(=O)NC(C)(C)C(=O)NC(C)(C)C(=O)NC(C)(C)C(=O)N[C@@H](CCC(N)=O)C(=O)N[C@@H](CC(C)C)C(=O)NC(C)(C)C(=O)N[C@@H](CCC(N)=O)C(=O)N[C@H](CO)CC(C)C)C1Cc2ccccc2C1 (Ac-[Igl]A[Aib][Aib]L[Aib]Q[Aib][Aib][Aib]QL[Aib]Q[Leu(ol)])
Mus musculus
  NA: No activity

## CC(=O)N1C2CCCCC2C[C@H]1C(=O)N[C@@H](C)C(=O)NC(C)(C)C(=O)NC(C)(C)C(=O)N[C@@H](CC(C)C)C(=O)NC(C)(C)C(=O)N[C@@H](CCC(N)=O)C(=O)NC(C)(C)C(=O)NC(C)(C)C(=O)NC(C)(C)C(=O)N[C@@H](CCC(N)=O)C(=O)N[C@@H](CC(C)C)C(=O)NC(C)(C)C(=O)N[C@@H](CCC(N)=O)C(=O)N[C@H](CO)CC(C)C (some centres not stated) (Ac-[Oic(3aξ,7aξ)]A[Aib][Aib]L[Aib]Q[Aib][Aib][Aib]QL[Aib]Q[Leu(ol)])
[1]
  NA: No activity
Mus musculus
  NA: No activity
